{"source": "ChEMBL document CHEMBL5375954", "about": "“Discovery and Evaluation of C6-Substituted Pyrazolopyrimidine-Based Bisphosphonate Inhibitors of the Human Geranylgeranyl Pyrophosphate Synthase and Evaluation of Their Antitumor Efficacy in Multiple Myeloma, Pancreatic Ductal Adenocarcinoma, and Colorectal Cancer” (J Med Chem, 2023)", "key": {"[1]": {"test": "Hepatotoxicity in female NSG mouse xenografted with human RPMI-8226 cells assessed as foci of necrosis at 3 mg/kg, ip administered 3 times a week for 26 days and measured 48 hrs post last dose by H and E staining based assay", "type": "toxicity, organism-based", "settings": "in vivo, 672 h, time 28 day"}, "Mus musculus": {"organism": "Mus musculus", "test": "Cytotoxicity against KPC mouse pancreatic cancer organoid ccmT4 at 1 uM incubated for 72 hrs by CellTiter-Glo luminescence based analysis", "type": "functional, tissue-based"}, "[2]": {"test": "Hepatotoxicity in male NSG mouse xenografted with human RPMI-8226 cells assessed as serum ALT level at 3 mg/kg, ip administered 3 times a week for 26 days and measured 48 hrs post last dose (reference value: 35 to 40 IU/L)", "type": "toxicity, organism-based", "settings": "in vivo, 672 h, time 28 day"}, "HCT-116 [3]": {"test_system": "HCT-116", "test": "Induction of apoptosis in human HCT-116 cells assessed as late apoptotic cells at 1 uM incubated for 72 hrs by APC-Annexin-V/7-AAD staining based flow cytometry (reference value: 0%)", "type": "functional"}, "Cytochrome P450 2D6": {"biological_target": "Cytochrome P450 2D6 (Homo sapiens, UniProt P10635)", "sequence (P10635 whole entry)": "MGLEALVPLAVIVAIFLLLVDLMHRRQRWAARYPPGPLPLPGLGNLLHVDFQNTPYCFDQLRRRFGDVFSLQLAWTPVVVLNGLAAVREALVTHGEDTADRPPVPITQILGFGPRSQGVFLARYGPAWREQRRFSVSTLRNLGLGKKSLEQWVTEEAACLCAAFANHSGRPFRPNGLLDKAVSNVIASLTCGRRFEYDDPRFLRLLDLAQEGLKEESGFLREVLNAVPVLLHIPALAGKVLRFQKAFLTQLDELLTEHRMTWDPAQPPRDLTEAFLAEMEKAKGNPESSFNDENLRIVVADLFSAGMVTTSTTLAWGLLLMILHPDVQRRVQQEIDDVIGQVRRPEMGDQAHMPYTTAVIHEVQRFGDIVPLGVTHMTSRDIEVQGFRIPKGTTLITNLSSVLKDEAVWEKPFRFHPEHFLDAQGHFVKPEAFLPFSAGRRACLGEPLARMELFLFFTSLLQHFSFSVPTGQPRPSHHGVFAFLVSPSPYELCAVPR", "test": "Inhibition of CYP2D6 (unknown origin)", "type": "ADME"}, "KMS-12-PE": {"test_system": "KMS-12-PE", "test": "Antiproliferative activity against human KMS-12-PE cells harboring wild type KRAS at 0.1 to 10000 nM incubated for 72 hrs by MTS assay", "type": "functional, cell-based", "settings": "dose 0.1-10000 nM"}, "[4]": {"test": "Hepatotoxicity in female NSG mouse xenografted with human RPMI-8226 cells assessed as vasculitis or perivasculitis at 3 mg/kg, ip administered 3 times a week for 26 days and measured 48 hrs post last dose by H and E staining based assay", "type": "toxicity, organism-based", "settings": "in vivo, 672 h, time 28 day"}, "RPMI-8226 [5]": {"test_system": "RPMI-8226", "test": "Antitumor activity against human RPMI-8226 cells xenografted in NSG mouse assessed as reduction in tumor volume at 3 mg/kg, ip administered 3 times a week for 26 days", "type": "functional, organism-based", "settings": "time 26.0 day"}, "[6]": {"test": "Hepatotoxicity in female NSG mouse xenografted with human RPMI-8226 cells assessed as eosinophilic degeneration at 3 mg/kg, ip administered 3 times a week for 26 days and measured 48 hrs post last dose by H and E staining based assay", "type": "toxicity, organism-based", "settings": "in vivo, 672 h, time 28 day"}, "HCT-116 [7]": {"test_system": "HCT-116", "test": "cells", "settings": "Homo sapiens, HCT-116, 72 h"}, "MIA PaCa-2 [8]": {"test_system": "MIA PaCa-2", "test": "Antitumor activity against human MIA PaCa-2 cells xenografted in NSG mouse assessed as difference in tumor volume at 3 mg/kg, ip administered 3 times a week for 26 days and measured 48 hrs post last dose", "type": "functional, organism-based", "settings": "time 28.0 day"}, "[9]": {"test": "Toxicity in NSG mouse xenografted with human MIA PaCa-2 cells assessed as inflammation at site of injection at 3 mg/kg, ip administered 3 times a week for 26 days and measured daily", "type": "organism-based", "settings": "in vivo, time 26 day"}, "[10]": {"test": "Hepatotoxicity in female NSG mouse xenografted with human RPMI-8226 cells assessed as prominent nucleoli at 3 mg/kg, ip administered 3 times a week for 26 days and measured 48 hrs post last dose by H and E staining based assay", "type": "toxicity, organism-based", "settings": "in vivo, 672 h, time 28 day"}, "[11]": {"test": "AUC(0 to t) in Sprague-Dawley rat at 3 mg/kg, iv measured for 24 hrs by LC-MS/MS analysis", "type": "ADME, organism-based", "design": "dose 3 mg/kg, time 24 hrs, route iv", "settings": "in vivo"}, "HCT-116 [12]": {"test_system": "HCT-116", "test": "Induction of apoptosis in human HCT-116 cells assessed as necrotic cells at 1 uM incubated for 72 hrs by APC-Annexin-V/7-AAD staining based flow cytometry (reference value: 2.99%)", "type": "functional"}, "MIA PaCa-2 [13]": {"test_system": "MIA PaCa-2", "test": "Antitumor activity against human MIA PaCa-2 cells xenografted in NSG mouse assessed as improvement in animal survival rate at 3 mg/kg, ip administered 3 times a week for 26 days and measured 60 days post last dose", "type": "functional, organism-based", "settings": "time 86.0 day"}, "[14]": {"test": "Half life in Sprague-Dawley rat at 3 mg/kg, iv measured for 24 hrs by LC-MS/MS analysis", "type": "ADME, organism-based", "settings": "in vivo"}, "[15]": {"test": "AUC(0 to infinity) in Sprague-Dawley rat at 3 mg/kg, iv measured for 24 hrs by LC-MS/MS analysis", "type": "ADME, organism-based", "design": "dose 3 mg/kg, time 24 hrs, route iv", "settings": "in vivo"}, "[16]": {"test": "Hepatotoxicity in male NSG mouse xenografted with human RPMI-8226 cells assessed as foci of bile ductular/oval cell proliferation at 3 mg/kg, ip administered 3 times a week for 26 days and measured 48 hrs post last dose by H and E staining based assay", "type": "toxicity, organism-based, Bile duct", "settings": "in vivo, 672 h, time 28 day"}, "[17]": {"test": "Toxicity in NSG mouse xenografted with human MIA PaCa-2 cells assessed as signs of distress at 3 mg/kg, ip administered 3 times a week for 26 days and measured daily", "type": "organism-based", "settings": "in vivo, time 26 day"}, "[18]": {"test": "Hepatotoxicity in female NSG mouse xenografted with human RPMI-8226 cells assessed as single-cell necrosis at 3 mg/kg, ip administered 3 times a week for 26 days and measured 48 hrs post last dose by H and E staining based assay", "type": "toxicity, organism-based", "settings": "in vivo, 672 h, time 28 day"}, "MIA PaCa-2 [19]": {"test_system": "MIA PaCa-2", "test": "Induction of apoptosis in human MIA PaCa-2 cells assessed as late apoptotic cells at 1 uM incubated for 72 hrs by APC-Annexin-V/7-AAD staining based flow cytometry (reference value: 0.29%)", "type": "functional"}, "[20]": {"test": "Cytotoxicity against human IMR-90 cells assessed as inhibition of cell growth at 10 uM incubated for 72 hrs by MTS assay relative to control", "type": "toxicity, cell-based"}, "[21]": {"test": "Toxicity in NSG mouse xenografted with human MIA PaCa-2 cells assessed as reduction in mobility at 3 mg/kg, ip administered 3 times a week for 26 days and measured daily", "type": "organism-based", "settings": "in vivo, time 26 day"}, "[22]": {"test": "Hepatotoxicity in male NSG mouse xenografted with human RPMI-8226 cells assessed as vasculitis or perivasculitis at 3 mg/kg, ip administered 3 times a week for 26 days and measured 48 hrs post last dose by H and E staining based assay", "type": "toxicity, organism-based", "settings": "in vivo, 672 h, time 28 day"}, "[23]": {"test": "Hepatotoxicity in male NSG mouse xenografted with human RPMI-8226 cells assessed as serum AST level at 3 mg/kg, ip administered 3 times a week for 26 days and measured 48 hrs post last dose (reference value: 76 to 78 IU/L)", "type": "toxicity, organism-based", "settings": "in vivo, 672 h, time 28 day"}, "MIA PaCa-2 [24]": {"test_system": "MIA PaCa-2", "test": "Induction of apoptosis in human MIA PaCa-2 cells assessed as live cells at 1 uM incubated for 72 hrs by APC-Annexin-V/7-AAD staining based flow cytometry (reference value: 97.7%)", "type": "functional"}, "[25]": {"test": "Cytotoxicity against Normal human bronchial epithelial cells assessed as inhibition of cell growth at 10 uM incubated for 72 hrs by MTS assay relative to control", "type": "toxicity, cell-based"}, "RPMI-8226 [26]": {"test_system": "RPMI-8226", "test": "Induction of ER stress in human RPMI-8226 cells at 1 uM", "type": "functional, cell-based"}, "[27]": {"test": "Metabolic stability in Sprague-Dawley rat liver microsomes assessed as compound remaining incubated for 45 mins in presence of NADPH by LC-MS/MS analysis", "type": "ADME, Microsome", "settings": "0.75 h"}, "[28]": {"test": "Metabolic stability in CD-1 mouse liver microsomes assessed as compound remaining incubated for 45 mins in absence of NADPH by LC-MS/MS analysis", "type": "ADME, Microsome", "settings": "0.75 h"}, "HCT-116 [29]": {"test_system": "HCT-116", "test": "Induction of apoptosis in human HCT-116 cells assessed as live cells at 1 uM incubated for 72 hrs by APC-Annexin-V/7-AAD staining based flow cytometry (reference value: 95.3%)", "type": "functional"}, "[30]": {"test": "Volume of distribution in Sprague-Dawley rat at 3 mg/kg, iv measured for 24 hrs by LC-MS/MS analysis", "type": "ADME, organism-based", "settings": "in vivo"}, "[31]": {"test": "Metabolic stability in Sprague-Dawley rat liver microsomes assessed as compound remaining incubated for 45 mins in absence of NADPH by LC-MS/MS analysis", "type": "ADME, Microsome", "settings": "0.75 h"}}, "note": "Activity calls are given as the source filed them. The calls are words filed in the database; no cut-off is given here."}
{"smiles": "Cn1ncc2c(NC(P(=O)(O)O)P(=O)(O)O)nc(-c3cccc(C(=O)Nc4ccc(C(F)(F)F)cc4)c3)nc21", "values": [{"measurement": "Activity", "setting": "[1]", "value": "Non-Toxic"}, {"measurement": "Activity", "setting": "Mus musculus", "value": "Active"}, {"measurement": "Activity", "setting": "[2]", "value": 42, "unit": "IU/L"}, {"measurement": "Activity", "setting": "HCT-116 [3]", "value": 18, "unit": "%"}, {"measurement": "IC50", "setting": "Cytochrome P450 2D6", "value": "> 40000", "unit": "nM"}, {"measurement": "Activity", "setting": "KMS-12-PE", "value": "Active"}, {"measurement": "Activity", "setting": "[4]", "value": "Non-Toxic"}, {"measurement": "Activity", "setting": "RPMI-8226 [5]", "value": "Active"}, {"measurement": "Activity", "setting": "[6]", "value": "Non-Toxic"}, {"measurement": "EC50", "setting": "HCT-116 [7]", "value": 580, "unit": "nM"}, {"measurement": "Activity", "setting": "MIA PaCa-2 [8]", "value": "Active"}, {"measurement": "Activity", "setting": "[9]", "value": "Non-Toxic"}, {"measurement": "Activity", "setting": "[10]", "value": "Non-Toxic"}, {"measurement": "AUC(0-t) at 24 h", "setting": "[11]", "value": 254, "unit": "µg·h/mL"}, {"measurement": "Activity", "setting": "HCT-116 [12]", "value": 4.6, "unit": "%"}, {"measurement": "Activity", "setting": "MIA PaCa-2 [13]", "value": "Active"}, {"measurement": "half-life", "setting": "[14]", "value": 3.84, "unit": "h"}, {"measurement": "AUC(0-inf)", "setting": "[15]", "value": 156, "unit": "µg·h/mL"}, {"measurement": "Activity", "setting": "[16]", "value": "Non-Toxic"}, {"measurement": "Activity", "setting": "[17]", "value": "Non-Toxic"}, {"measurement": "Activity", "setting": "[18]", "value": "Non-Toxic"}, {"measurement": "Activity", "setting": "MIA PaCa-2 [19]", "value": 41, "unit": "%"}, {"measurement": "inhibition at 72 h, 10 µM", "setting": "[20]", "value": "~20", "unit": "%"}, {"measurement": "Activity", "setting": "[21]", "value": "Non-Toxic"}, {"measurement": "Activity", "setting": "[22]", "value": "Non-Toxic"}, {"measurement": "Activity", "setting": "[23]", "value": 96, "unit": "IU/L"}, {"measurement": "Activity", "setting": "MIA PaCa-2 [24]", "value": 32.1, "unit": "%"}, {"measurement": "inhibition at 72 h, 10 µM", "setting": "[25]", "value": 0, "unit": "%"}, {"measurement": "Activity", "setting": "RPMI-8226 [26]", "value": "Active"}, {"measurement": "Stability", "setting": "[27]", "value": 89.7, "unit": "%"}, {"measurement": "Stability", "setting": "[28]", "value": 121, "unit": "%"}, {"measurement": "Activity", "setting": "HCT-116 [29]", "value": 56.6, "unit": "%"}, {"measurement": "Vd", "setting": "[30]", "value": 0.055, "unit": "L/kg"}, {"measurement": "Stability", "setting": "[31]", "value": 99.3, "unit": "%"}]}
